# Measured values: patent US12138267B2, “Methods of treating respiratory depression modulated by a non-opioid agent” (Enalare Therapeutics Inc., priority 2021, dated 2024)
# Entries after “also recorded” stand apart in the source; their conditions may differ. Like-named read-outs stand apart in the source and are kept apart here.
# What was measured:
# [1] = Pharmacokinetics of Compound A, plasma concentrations after IV infusion; type: in vivo, human; conditions: for AUC(0-inf) / AUC(0-t) / clearance / Cmax / half-life / Tmax: both sexes, human, plasma, intravenous
# Protocol: (§1) Subjects underwent 3 separate treatment periods. […] PD will be unblinded for treatment but not subject. […] Participant Disposition
# Pharmacokinetic samples were measured up to 24 hours after the start of the IV infusion. […] Therefore, a fast decrease in concentration was observed, followed by a slow […].
# [2] = system: healthy participants; assay: Safety and tolerability; type: in vivo, human
# Text: as §1
# Moreover, the only participant who developed phlebitis received placebo. […] No clinically meaningful differences between treatments were identified in any other safety parameter.
# [3] = system: healthy participants; assay: Sedation (BIS), cardiovascular response and arterial blood gases; type: in vivo, human; conditions: versus placebo
# [4] = system: healthy participants
# [5] = system: healthy participants; conditions: cited from earlier work
# [6] = Compound A (dose not given; third treatment), first hypoxic measurement under hypercapnic conditions, without propofol
# [7] = Compound A (dose not given; third treatment), hypoxic/hypercapnic measurement during propofol high dose
# [8] = Compound A low dose, first hypoxic measurement under hypercapnic conditions, without propofol
# [9] = Compound A low dose, hypoxic/hypercapnic measurement during propofol high dose
structure (smiles),measurement,setting,value
CCCNc1nc(NCCC)nc(N(C)OC)n1 [Compound A],AUCinf Min,"[1]; ENA-001 high dose, N 12",6235 ng·h/mL
same,AUClast Max,"[1]; ENA-001 high dose, N 12",13169 ng·h/mL
same,AUClast Min,"[1]; ENA-001 high dose, N 12",6169 ng·h/mL
same,CL Max,"[1]; ENA-001 high dose, N 12",67.8 L/h
same,CL Min,"[1]; ENA-001 high dose, N 12",23.8 L/h
same,Cmax Min,"[1]; ENA-001 high dose, N 12",1090 ng/mL
same,Cmin Geometric Mean,"[1]; ENA-001 high dose, N 12",867.4 ng/mL
same,Cmin Max,"[1]; ENA-001 high dose, N 12",1230 ng/mL
same,Cmin Mean,"[1]; ENA-001 high dose, N 12",886.6 ng/mL
same,Cmin Median,"[1]; ENA-001 high dose, N 12",859 ng/mL
same,Cmin Min,"[1]; ENA-001 high dose, N 12",601 ng/mL
same,t1/2 Max,"[1]; ENA-001 high dose, N 12",8.40 h
same,t1/2 Min,"[1]; ENA-001 high dose, N 12",3.39 h
same,tmax Max,"[1]; ENA-001 high dose, N 12",4.50 h
same,tmax Min,"[1]; ENA-001 high dose, N 12",1.92 h
same,AUCinf Max,"[1]; ENA-001 low dose, N 12",3148 ng·h/mL
same,AUCinf Min,"[1]; ENA-001 low dose, N 12",2155 ng·h/mL
same,AUClast Max,"[1]; ENA-001 low dose, N 12",3059 ng·h/mL
same,AUClast Min,"[1]; ENA-001 low dose, N 12",2151 ng·h/mL
same,CL Max,"[1]; ENA-001 low dose, N 12",75.5 L/h
same,CL Min,"[1]; ENA-001 low dose, N 12",41.9 L/h
same,Cmax Max,"[1]; ENA-001 low dose, N 12",563 ng/mL
same,Cmax Min,"[1]; ENA-001 low dose, N 12",375 ng/mL
same,Cmin Geometric Mean,"[1]; ENA-001 low dose, N 12",299.6 ng/mL
same,Cmin Max,"[1]; ENA-001 low dose, N 12",379 ng/mL
same,Cmin Mean,"[1]; ENA-001 low dose, N 12",302.3 ng/mL
same,Cmin Median,"[1]; ENA-001 low dose, N 12",296 ng/mL
same,Cmin Min,"[1]; ENA-001 low dose, N 12",251 ng/mL
same,t1/2 Max,"[1]; ENA-001 low dose, N 12",6.99 h
same,t1/2 Min,"[1]; ENA-001 low dose, N 12",3.00 h
same,tmax Max,"[1]; ENA-001 low dose, N 12",4.50 h
same,tmax Min,"[1]; ENA-001 low dose, N 12",3.33 h
same,Plasma values at 24 hours post-dose,"[1]; all participants, both dose levels",above the LLOQ
same,AUC(0-inf),"[1]; ENA-001 high dose, N 12, read-out: AUCinf Geometric Mean",8440 ng·h/mL
same,AUC(0-inf),"[1]; ENA-001 high dose, N 12, read-out: AUCinf Mean",8710 ng·h/mL
same,AUC(0-inf),"[1]; ENA-001 high dose, N 12, read-out: AUCinf Median",7800 ng·h/mL
same,AUC(0-t),"[1]; ENA-001 high dose, N 12, read-out: AUClast Geometric Mean",8240 ng·h/mL
same,AUC(0-t),"[1]; ENA-001 high dose, N 12, read-out: AUClast Mean",8500 ng·h/mL
same,AUC(0-t),"[1]; ENA-001 high dose, N 12, read-out: AUClast Median",7540 ng·h/mL
same,clearance,"[1]; ENA-001 high dose, N 12, read-out: CL Geometric Mean (converted)",735 mL/min
same,clearance,"[1]; ENA-001 high dose, N 12, read-out: CL Mean (converted)",756 mL/min
same,clearance,"[1]; ENA-001 high dose, N 12, read-out: CL Median (converted)",772 mL/min
same,Cmax,"[1]; ENA-001 high dose, N 12, read-out: Cmax Geometric Mean",1510 ng/mL
same,Cmax,"[1]; ENA-001 high dose, N 12, read-out: Cmax Mean",1560 ng/mL
same,Cmax,"[1]; ENA-001 high dose, N 12, read-out: Cmax Median",1520 ng/mL
same,half-life,"[1]; ENA-001 high dose, N 12, read-out: t1/2 Geometric Mean (converted)",5.49 h
same,half-life,"[1]; ENA-001 high dose, N 12, read-out: t1/2 Mean (converted)",5.64 h
same,half-life,"[1]; ENA-001 high dose, N 12, read-out: t1/2 Median (converted)",5.63 h
same,Tmax,"[1]; ENA-001 high dose, N 12, read-out: tmax Geometric Mean",3.84 h
same,Tmax,"[1]; ENA-001 high dose, N 12, read-out: tmax Mean",3.96 h
same,Tmax,"[1]; ENA-001 high dose, N 12, read-out: tmax Median",4.36 h
same,AUC(0-inf),"[1]; ENA-001 low dose, N 12, read-out: AUCinf Geometric Mean",2660 ng·h/mL
same,AUC(0-inf),"[1]; ENA-001 low dose, N 12, read-out: AUCinf Mean",2670 ng·h/mL
same,AUC(0-inf),"[1]; ENA-001 low dose, N 12, read-out: AUCinf Median",2650 ng·h/mL
same,AUC(0-t),"[1]; ENA-001 low dose, N 12, read-out: AUClast Geometric Mean",2610 ng·h/mL
same,AUC(0-t),"[1]; ENA-001 low dose, N 12, read-out: AUClast Mean",2630 ng·h/mL
same,AUC(0-t),"[1]; ENA-001 low dose, N 12, read-out: AUClast Median",2630 ng·h/mL
same,clearance,"[1]; ENA-001 low dose, N 12, read-out: CL Geometric Mean (converted)",918 mL/min
same,clearance,"[1]; ENA-001 low dose, N 12, read-out: CL Mean (converted)",929 mL/min
same,clearance,"[1]; ENA-001 low dose, N 12, read-out: CL Median (converted)",885 mL/min
same,Cmax,"[1]; ENA-001 low dose, N 12, read-out: Cmax Geometric Mean",463 ng/mL
same,Cmax,"[1]; ENA-001 low dose, N 12, read-out: Cmax Mean",468 ng/mL
same,Cmax,"[1]; ENA-001 low dose, N 12, read-out: Cmax Median",477 ng/mL
same,half-life,"[1]; ENA-001 low dose, N 12, read-out: t1/2 Geometric Mean (converted)",4.99 h
same,half-life,"[1]; ENA-001 low dose, N 12, read-out: t1/2 Mean (converted)",5.1 h
same,half-life,"[1]; ENA-001 low dose, N 12, read-out: t1/2 Median (converted)",5.05 h
same,Tmax,"[1]; ENA-001 low dose, N 12, read-out: tmax Geometric Mean",4.25 h
same,Tmax,"[1]; ENA-001 low dose, N 12, read-out: tmax Mean",4.26 h
same,Tmax,"[1]; ENA-001 low dose, N 12, read-out: tmax Median",4.33 h
same,AUC(0-inf),"[1]; high dose, read-out: highest individual AUCinf",13800 ng·h/mL
same,Cmax,"[1]; high dose, read-out: highest individual Cmax",2600 ng/mL
same,AUC(0-inf),"[1]; high dose, read-out: mean (±SD) AUCinf",8710 ± 2420 ng·h/mL
same,Cmax,"[1]; high dose, read-out: mean (±SD) Cmax",1560 ± 437 ng/mL
same,half-life,"[1]; high dose, read-out: range of apparent terminal t1/2",3.39 to 8.4 h
same,Tmax,"[1]; high dose, read-out: tmax (mean peak concentrations)",3.96 h
same,AUC(0-inf),"[1]; low dose, read-out: mean (±SD) AUCinf",2670 ± 330 ng·h/mL
same,Cmax,"[1]; low dose, read-out: mean (±SD) Cmax",468 ± 68.2 ng/mL
same,half-life,"[1]; low dose, read-out: range of apparent terminal t1/2",3 to 6.99 h
same,Tmax,"[1]; low dose, read-out: tmax (mean peak concentrations)",4.26 h
same,Plasma concentration decline after infusion stop,[1]; from 4 hour 30 minutes onwards,bi-exponential decline
same,Average tmin,[1]; high dose,1.133 h
same,Geometric mean Cav30-270 min (average arterial plasma concentration during 30-270 min),[1]; high dose,1161.69 ng/mL
same,Maximum concentration on average following IV infusion loading dose,"[1]; high dose, 20 minutes loading dose 2.0 mg/kg/h",1162.833 ng/mL
same,average Compound A concentration per propofol dosing interval,"[1]; high dose, high propofol 200-270 min",1412.28 ng/mL
same,average Compound A concentration per propofol dosing interval,"[1]; high dose, low propofol 115-185 min",1206.27 ng/mL
same,average Compound A concentration per propofol dosing interval,"[1]; high dose, no propofol 30-100 min",971.79 ng/mL
same,Effect of propofol on Compound A concentrations,[1]; in vivo,No apparent effect
same,Dose proportionality of PK,"[1]; investigated dosing range, dose normalised AUC and Cav",Dose proportionality of PK over the investigated dosing range was apparent; also recorded: Dose proportionality of PK was apparent over the investigated dosing range; also recorded: showed dose proportionality over the investigated dosing range
same,Average tmin,[1]; low dose,1.201 h
same,Geometric mean Cav30-270 min (average arterial plasma concentration during 30-270 min),[1]; low dose,366.40 ng/mL
same,Maximum concentration on average following IV infusion loading dose,"[1]; low dose, 10 minutes loading dose 2.0 mg/kg/h",857.000 ng/mL
same,average Compound A concentration per propofol dosing interval,"[1]; low dose, high propofol 200-270 min",427.54 ng/mL
same,average Compound A concentration per propofol dosing interval,"[1]; low dose, low propofol 115-185 min",359.75 ng/mL
same,average Compound A concentration per propofol dosing interval,"[1]; low dose, no propofol 30-100 min",323.41 ng/mL
same,Steady state,[1]; within the 260 and 250 minute infusions,steady-state concentrations were not reached; also recorded: did not reach steady state
same,Nausea probably related to treatment,"[2]; Compound A high dose, IV ondansetron pre-treatment",single occurrence of mild nausea
same,Treatment-related SAEs,[2]; in vivo,No treatment-related SAEs
same,Trend in AEs,[2]; in vivo,mild infusion site pain and related events
same,Safety and tolerability,"[2]; two dose levels, healthy participants",safe and well tolerated; also recorded: favourable safety and tolerability profiles
same,Cardiovascular response,[3],No clinically meaningful difference on cardiovascular response
same,"Level of propofol-induced sedation / arousal, BIS",[3]; with clinically relevant doses of propofol,did not impact the level of the propofol-induced sedation; also recorded: did not lead to a significant difference in arousal compared to placebo
same,Minute ventilation during hypoxic measurement,[4]; [6],38.8 L/min
same,"Minute ventilation, pre-hypoxic baseline",[4]; [6],8.5 L/min
same,Minute ventilation during hypoxic measurement,[4]; [7],27.4 L/min
same,"Minute ventilation, pre-hypoxic baseline",[4]; [7],8.4 L/min
same,ETCO2 difference prior to each hypoxic measurement,[4]; Compound A high dose compared to placebo and low dose,approximately 3 mmHg
same,Increase in minute ventilation induced by hypercapnia,"[4]; Compound A high dose group, during high dose propofol",more pronounced
same,Respiratory rate at pre-hypoxic timepoints,"[4]; Compound A high dose, during propofol infusion",difference between Compound A high dose compared to placebo and Compound A low dose could be observed
same,ETCO2 compared to placebo,[4]; Compound A low dose,comparable to placebo treatment
same,"Hypoxic Sensitivity, First LSM of contrast",[4]; Compound A low dose (2 mg/kg/h 10 min then 0.4 mg/kg/h 260 min IV),0.747 L/min/%
same,Minute ventilation during hypoxic measurement,[4]; [8],30.3 L/min
same,"Minute ventilation, pre-hypoxic baseline",[4]; [8],8.1 L/min
same,Minute ventilation during hypoxic measurement,[4]; [9],15.0 L/min
same,"Minute ventilation, pre-hypoxic baseline",[4]; [9],6.3 L/min
same,Hypoxic sensitivity compared to placebo,[4]; both with and without co-administration of propofol,increased hypoxic sensitivity compared to placebo
same,"Hypoxic Sensitivity, First LSM of contrast",[4]; high dose (2 mg/kg/h 20 min then 1.1 mg/kg/h 250 min IV),1.179 L/min/%
same,"Hypoxic Sensitivity, Estimate of the difference",[4]; high dose minus placebo,0.575 L/min/%
same,Hypoxic sensitivity during propofol,"[4]; in vivo, 1.1 mg/kg",remain similar to pre-propofol values
same,"Hypoxic Sensitivity, Estimate of the difference",[4]; low dose minus placebo,0.144 L/min/%
same,Ventilatory stimulation,"[5]; high dose (1.1 mg/kg/h), healthy participants, Roozekrans et al., 2014",clear ventilatory stimulation
same,Stimulatory effects on minute ventilation,"[5]; low dose (0.4 mg/kg/h), McLeod et al., 2014",no/minimal stimulatory effects on minute ventilation
same,Nausea in previous studies,[5]; previous studies,nausea was associated with Compound A administration
